Results from US11596150B2, “Long chain glycolipids useful to avoid perishing or microbial contamination of materials” (IMD NATURAL SOLUTIONS GMBH, priority 2011, dated 2023).
In brackets after ≈: the same amount, converted by molar mass. Like-named read-outs stand apart in the source and are kept apart here.

Columns and labels:
[1] = test system: Mucor plumbeus (MUCL49355); experiment: MIC determination in microtiter plates (non-pathogenic microorganisms); assay type: cell-based
[2] = test system: Zygosaccharomyces rouxii (NCYC381); experiment: as above; assay type: cell-based; conditions: 48 h, read-out: MIC values after 48 h
[3] = test system: Aspergillus niger (ATCC 16404); experiment: as above; assay type: cell-based; conditions: Aspergillus niger (ATCC16404); 48 h; read-out: MIC values after 48 h
[4] = test system: Talaromyces luteus (CBS348.51); experiment: MIC after 48 h (Example 9); assay type: cell-based; conditions: Ascospirella lutea
[5] = test system: Lactobacillus plantarum (DSM 12028); experiment: MIC determination in microtiter plates (non-pathogenic microorganisms); assay type: cell-based; conditions: Lactiplantibacillus plantarum; Lactobacillus plantarum (DSM12028); 48 h; read-out: MIC values after 48 h
[6] = test system: Dekkera bruxellensis (DSM70726); experiment: as above; assay type: cell-based; conditions: Brettanomyces bruxellensis, 48 h, read-out: MIC values after 48 h
[7] = test system: Corynebacterium variabile (DSM20132); experiment: as above; assay type: cell-based; conditions: 48 h, read-out: MIC values after 48 h
[8] = test system: Pyricularia oryzae (DSM62938); experiment: microbe, parasite or virus in culture; assay type: cell-based; conditions: DSM62938, 48 h, read-out: MIC values after 48 h
[9] = test system: Byssochlamys fulva (DSM62097); experiment: MIC determination in microtiter plates (non-pathogenic microorganisms); assay type: cell-based; conditions: Paecilomyces fulvus, 48 h, read-out: MIC values after 48 h
[10] = test system: Zygosaccharomyces bisporus (DSM70415); experiment: as above; assay type: cell-based; conditions: 48 h, read-out: MIC values after 48 h
[11] = test system: Dekkera naardenensis (DSM70743); experiment: as above; assay type: cell-based; conditions: Brettanomyces naardenensis, 48 h, read-out: MIC values after 48 h
[12] = test system: Zygosaccharomyces florentinus (DSM70506); experiment: as above; assay type: cell-based; conditions: Zygotorulaspora florentina, 48 h, read-out: MIC values after 48 h
[13] = test system: Zygosaccharomyces bailii (DSM70492); experiment: as above; assay type: cell-based; conditions: 48 h, read-out: MIC values after 48 h
[14] = test system: Bacillus subtilis (ATCC6633); experiment: as above; assay type: cell-based; conditions: 48 h, read-out: MIC values after 48 h
[15] = test system: Saccharomyces cerevisiae (HT10); experiment: as above; assay type: cell-based; conditions: 48 h, read-out: MIC values after 48 h
[16] = test system: Aspergillus fumigatus (ATCC 1028); experiment: microbe, parasite or virus in culture; assay type: cell-based
[17] = test system: Staphylococcus aureus (ATCC 6538P); experiment: microbe, parasite or virus in culture; assay type: cell-based; conditions: ATCC6538P, Mueller-Hinton Broth, 1% DMSO, 20 hours at 36° C., read-out: MIC S. aureus
[18] = test system: Clostridium perfringens (ATCC 13124); experiment: microbe, parasite or virus in culture; assay type: cell-based; conditions: ATCC13124, 48 h
[19] = test system: Propionibacterium acnes (ATCC6919); experiment: MIC after 48 h (Example 9); assay type: cell-based; conditions: Cutibacterium acnes
[20] = test system: Candida albicans; experiment: MIC / growth inhibition after 48 h (Example 9); conditions: ATCC10231, 48 h, read-out: MIC values after 48 h
[21] = test system: Enterococcus faecalis (ATCC19433); experiment: MIC after 48 h (Example 9); conditions: ATCC19433, 48 h, read-out: MIC values after 48 h
[22] = test system: Listeria monocytogenes (ATCC19111); experiment: MIC after 48 h (Example 9); conditions: ATCC19111, 48 h, read-out: MIC values after 48 h
[23] = test system: Listeria welshimeri (DSM15452); experiment: MIC determination in microtiter plates (non-pathogenic microorganisms); assay type: cell-based; conditions: 48 h, read-out: MIC values after 48 h
Description: Various nonpathogenic bacteria, yeasts, and filamentous fungi were obtained from public culture collections and maintained as recommended in the catalogues and protocols of the respective institutions. Saccharomyces cerevisiae strain HT10 and Mucor plumbeus were originally taken from the culture collection of InterMed Discovery GmbH but deposited with MUCL as reference strains for antimicrobial susceptibility testing. These strains were maintained under liquid nitrogen and, prior to the screening, on YMG agar. Prior to the screening the yeast and bacterial strains were grown over night on SDB (medium 1), except for Bacillus subtilis, which was grown on YMG agar (medium 2) for 1 week to prepare spore suspensions. Likewise, the filamentous fungi were pre-incubated on YMG agar for 2-3 weeks to create inoculum for spore suspensions. […] For all experiments, freshly prepared spore suspensions were used. The initial concentrations for the bioassays were adjusted to 1×10^5 CFU (i.e. cells or spores, respectively) per ml. […] To adjust the initial titer prior to the bioassays, the CFU per ml was determined under the microscope using a counting chamber type “Brand Neubauer improved”; BRAND GmbH & Co KG, Wertheim, Germany). This microscopic control also served as means for assessment of the viability of the cells. […]

[24] = test system: Bacillus cereus; experiment: MIC / growth inhibition after 48 h (Example 9); conditions: ATCC11778, 48 h, read-out: MIC values after 48 h
[25] = test system: Clostridium sporogenes; experiment: MIC / growth inhibition after 48 h (Example 9); conditions: ATCC3584, 48 h, read-out: MIC values after 48 h
[26] = M. plumbeus (MUCL49355), SDB medium, day 2
[27] = M. plumbeus (MUCL49355), SDB medium, day 7
[28] = M. plumbeus (MUCL49355), SDB medium, day 16
[29] = M. plumbeus (MUCL49355), SDB medium, day 28
[30] = M. plumbeus (MUCL49355), SDB medium, day not given (Table 19)
[31] = M. plumbeus (MUCL49355), SDB medium, day not printed (first line of Table 19)
[32] = Mucor plumbeus (MUCL49355), 48 h, read-out: MIC values after 48 h
[33] = Aspergillus fumigatus (ATCC1028), 48 h, read-out: MIC values after 48 h
[34] = Aspergillus fumigatus, ATCC1028, 72 h, Potato Dextrose Broth, 1% DMSO, 3 days at 28° C., read-out: MIC A. fumigatus
[35] = read-out: MIC values after 48 h

SMILES | MIC [2] [µg/mL] | MIC [3] [µg/mL] | MIC [4] [µg/mL] | MIC [5] [µg/mL] | MIC [6] [µg/mL] | MIC [7] [µg/mL] | MIC [8] [µg/mL] | MIC [9] [µg/mL] | MIC [10] [µg/mL] | MIC [1, 30] | MIC [1, 31] | MIC [1, 32] [µg/mL] | MIC [11] [µg/mL] | MIC [12] [µg/mL] | MIC [13] [µg/mL] | MIC [14] [µg/mL] | MIC [15] [µg/mL] | also measured
C/C=C/C=C/C(=O)O [sorbic acid, reference compound] |  |  |  |  |  |  |  |  |  |  |  |  |  |  |  |  |  | MIC [1, 26]: 250; MIC [1, 27]: 500; MIC [1, 28]: 1000; MIC [1, 29]: 1000
CCCCC(CCCC(O)C(O)CCCCCCCCCCCCCCC(O)C(=O)O)OC1OCC(O)C(O)C1OC1OCC(O)C(O)C1OC1OC(CO)C(O)C(O)C1O (centres unmarked) [[16], Glykenin DGC or Glykenin DGB] | 100 (≈ 113 µM) | 25 (≈ 28.2 µM) | 50 (≈ 56.4 µM) | 50 (≈ 56.4 µM) | > 100 | 1.6 (≈ 1.8 µM) | 25 (≈ 28.2 µM) | 6.3 (≈ 7.1 µM) | > 100 | >100 | >100 | > 100 | 50 (≈ 56.4 µM) | > 100 | 25 (≈ 28.2 µM) | 3.1 (≈ 3.49 µM) | > 100 | 
CCCCC(CCCC(O)C(O)CCCCCCCCCCCCCCC(O)C(=O)O)OC1OCC(O)C(O)C1OC1OCC(OC(C)=O)C(O)C1OC1OC(CO)C(O)C(O)C1O (centres unmarked) [[14]] | 25 (≈ 26.9 µM) | 50 (≈ 53.8 µM) | 50 (≈ 53.8 µM) | 25 (≈ 26.9 µM) | 50 (≈ 53.8 µM) | 1.6 (≈ 1.72 µM) | 25 (≈ 26.9 µM) |  | 50 (≈ 53.8 µM) | >100 | 50 | 50 (≈ 53.8 µM) | 25 (≈ 26.9 µM) | 50 (≈ 53.8 µM) | 25 (≈ 26.9 µM) | 1.6 (≈ 1.72 µM) | 50 (≈ 53.8 µM) | 
CCCCCCC(CCCC(O)CCCCCCCCCCCCCC(O)C(=O)O)OC1OCC(O)C(O)C1OC1OCC(OC(C)=O)C(O)C1OC1OC(COC(C)=O)C(O)C(O)C1O (centres unmarked) [[10], Antibiotic F 19848A] |  |  |  |  |  |  |  |  |  | 50 | 12.5 |  |  |  |  |  |  | 
CCCCC(CCCC(O)C(O)CCCCCCCCCCCCCCC(O)C(=O)O)OC1OCC(O)C(O)C1OC1OCC(OC(C)=O)C(O)C1OC1OC(COC(=O)CC(C)C)C(O)C(O)C1O (centres unmarked) [[1], 2,17,18-trihydroxy-hexacosanoic acid 22-O-[6-isovaleroyl-hexapyranosyl-(1→2)-5-acetyl-pentapyranosyl-(1→2)-penta-pyranosid]-] | 6.3 (≈ 6.22 µM) | 3.1 (≈ 3.06 µM) | 12.5 (≈ 12.3 µM) | 25 (≈ 24.7 µM) | 6.3 (≈ 6.22 µM) | 1.6 (≈ 1.58 µM) | 6 (≈ 5.92 µM) | 3.1 (≈ 3.06 µM) | 12.5 (≈ 12.3 µM) | 50 | 25 | 6.3 (≈ 6.22 µM) | 6.3 (≈ 6.22 µM) | 6.3 (≈ 6.22 µM) | 6.3 (≈ 6.22 µM) | 3.1 (≈ 3.06 µM) | 6.3 (≈ 6.22 µM) | MIC [16, 33]: 20 µg/mL (≈ 19.7 µM); MIC [16, 34]: 20 µg/mL (≈ 19.7 µM); MIC [17]: 200 µg/mL (≈ 197 µM); MIC ([18]; read-out: MIC C. perfringens): 60 µg/mL (≈ 59.2 µM); MIC [18, 35]: 60 µg/mL (≈ 59.2 µM); MIC [19]: 100 µg/mL (≈ 98.7 µM); MIC [20]: 30 µg/mL (≈ 29.6 µM)
CCCCC(CCCC(O)C(O)CCCCCCCCCCCCCCC(O)C(=O)O)OC1OCC(O)C(O)C1OC1OCC(O)C(O)C1OC1OC(COC(C)=O)C(OC(C)=O)C(O)C1O (centres unmarked) [[6], Glykenin IIIB or Glykenin IIIC] |  |  |  |  |  |  |  |  |  | 25 | 25 |  |  |  |  |  |  | 
CCCCC(CCCC(O)C(O)CCCCCCCCCCCCCCC(O)C(=O)O)OC1OCC(O)C(O)C1OC1OCC(O)C(O)C1OC1OC(COC(=O)CC(C)C)C(OC(C)=O)C(O)C1O (centres unmarked) [[13]] | 12.5 (≈ 12.3 µM) | 12.5 (≈ 12.3 µM) | 25 (≈ 24.7 µM) | 25 (≈ 24.7 µM) | 6.3 (≈ 6.22 µM) | 1.6 (≈ 1.58 µM) | 6 (≈ 5.92 µM) | 3.1 (≈ 3.06 µM) | 25 (≈ 24.7 µM) | 25 | 12.5 | 12.5 (≈ 12.3 µM) | 12.5 (≈ 12.3 µM) | 12.5 (≈ 12.3 µM) | 6.3 (≈ 6.22 µM) | 3.1 (≈ 3.06 µM) | 12.5 (≈ 12.3 µM) | 
O=C(O)c1ccccc1 [benzoic acid, reference compound] |  |  |  |  |  |  |  |  |  |  |  |  |  |  |  |  |  | MIC [1, 26]: 1000; MIC [1, 27]: 1000; MIC [1, 28]: >1000; MIC [1, 29]: >1000
CCCCCCC(CCCC(O)CCCCCCCCCCCCCC(O)C(=O)O)OC1OCC(O)C(O)C1OC1OCC(OC(C)=O)C(O)C1OC1OC(COC(=O)CC(C)C)C(O)C(O)C1O (centres unmarked) [[18]] |  |  |  |  |  |  |  |  |  | >100 | 25 |  |  |  |  |  |  | 
CCCCC(CCCC(O)C(O)CCCCCCCCCCCCCCC(O)C(=O)O)OC1OCC(O)C(O)C1OC1OCC(O)C(O)C1OC1OC(COC(=O)CC(C)C)C(O)C(O)C1O (centres unmarked) [[12]] | 6.3 (≈ 6.49 µM) | 6.3 (≈ 6.49 µM) | 25 (≈ 25.7 µM) | 25 (≈ 25.7 µM) | 6.3 (≈ 6.49 µM) | < 0.8 | 25 (≈ 25.7 µM) | 6.3 (≈ 6.49 µM) | 12.5 (≈ 12.9 µM) | 100 | 50 | 6.3 (≈ 6.49 µM) | 6.3 (≈ 6.49 µM) | 6.3 (≈ 6.49 µM) | 6.3 (≈ 6.49 µM) | 1.6 (≈ 1.65 µM) | 6.3 (≈ 6.49 µM) | MIC [21]: 50 µg/mL (≈ 51.5 µM); MIC [16, 33]: 20 µg/mL (≈ 20.6 µM); MIC [16, 34]: 20 µg/mL (≈ 20.6 µM); MIC [17]: 200 µg/mL (≈ 206 µM); MIC [22]: 50 µg/mL (≈ 51.5 µM); MIC ([18]; read-out: MIC C. perfringens): 60 µg/mL (≈ 61.8 µM); MIC [18, 35]: 60 µg/mL (≈ 61.8 µM); MIC [23]: 25 µg/mL (≈ 25.7 µM); MIC [24]: 12.5 µg/mL (≈ 12.9 µM); MIC [20]: 25 µg/mL (≈ 25.7 µM); MIC [25]: 50 µg/mL (≈ 51.5 µM)
